Consider 13 compounds from PubChem BioAssay (NCI).

What all share (assay): NCI anticancer screen, dose series, 48 h
In assay [1] the test system is A498 renal.
Assay [2] concerns SK-OV-3 ovarian.
For assay [3], the system named is SF-295 CNS.
For assay [4], the system named is SK-MEL-28 melanoma.
Assay [5] concerns COLO 205 colon.
Assay [6] has as its system U251 CNS.
Assay [7] concerns IGROV1 ovarian.
Assay [8] concerns SF-268 CNS.

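Cells were grown in 96-well plates and exposed to each compound for 48 hours at five concentrations; endpoints were interpolated linearly between bracketing concentrations, or set to the highest concentration if not reached. TGI denotes the concentration required for complete inhibition of growth.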

As for `O=C(O)C(CS)N=c1c2ccccc2n(O)c2ccccc12` (stereo unspecified), the TGI in assay [1], in assay [2], in assay [3], in assay [4], in assay [5] and in assay [6] was > 100 µM in each case. For the same compound, the TGI in assay [7] and in assay [8] was > 100 µM in each case.

On to `COC1(OC)CCCCC2c3cccc(OC(C)=O)c3C21OC(C)=O` (stereo unspecified), for which the TGI in assay [2], in assay [3], in assay [4], in assay [5], in assay [7] and in assay [8] was > 100 µM throughout.

On to `COC(=O)C1CC2(c3ccccc3)C(=O)c3ccccc3N2O1` (stereo unspecified), for which the TGI in assay [1], in assay [2], in assay [3], in assay [4], in assay [5] and in assay [6] was > 100 µM each time. The TGI in assay [7] and in assay [8] was > 100 µM each time.

In the case of `COC(=O)/C=C/c1cc(OC)c(OC)c(OC)c1`, the TGI in assay [2], in assay [3], in assay [4], in assay [5], in assay [7] and in assay [8] was > 100 µM throughout.

As for `C=CCOCCCCC(C(C)=O)C(=O)OC` (stereo unspecified), the TGI in assay [1], in assay [2], in assay [3], in assay [4], in assay [5] and in assay [6] was > 100 µM each time. Besides, the TGI in assay [7] and in assay [8] was > 100 µM throughout.

As for `O=C(CC1=NCCN1)c1ccccc1`, the TGI in assay [1] was > 75 µM; in assay [2], > 750 µM; in assay [3], > 750 µM; in assay [4] it was > 750 µM; in assay [5], > 750 µM; in assay [6], > 750 µM. Besides, the TGI in assay [7] and in assay [8] was > 750 µM throughout.

Take `O=C(N/N=C/c1cc(Br)cc(Br)c1[O-])c1ccccc1O.O=C(N/N=C/c1cc(Br)cc(Br)c1[O-])c1ccccc1O.[Fe+2]`: the TGI in assay [2] amounted to 13.9 µM; in assay [3], 15.8 µM; in assay [4], 21.6 µM; in assay [5] it was 35.8 µM; in assay [6], 7.88 µM; in assay [7], 41.4 µM. This compound also yielded a TGI in assay [8] of 38.9 µM.

Turning to `CC(=O)OCC(OC(C)=O)C1C[C@H]2O[C@@H]3[C@H](C[C@H]2O1)O[C@@]1(C[C@@H]3C)C[C@H](C)[C@@H]2O[C@]3(C[C@@H]2O1)C[C@H]1O[C@H]2[C@H](C)[C@H]4OC(=O)CC5CC[C@H]6OC7[C@H]8O[C@]9(CC[C@H]%10CC(O)(CO)[C@H](CC[C@H]%11C[C@@H](C)C(O)(CO)C(C[C@@H]4O[C@H]2C[C@H]1O3)O%11)O%10)CC8O[C@@H]7[C@@H](O9)[C@H]6O5` (stereo partly specified), the TGI in assay [1] was > 1 µM; in assay [2] it was > 1 µM; in assay [3], > 0.301 µM; in assay [4], > 1 µM; in assay [5], 0.0696 µM; in assay [6], > 1 µM. The TGI in assay [7] and in assay [8] was > 1 µM each time.

As to `O=C(O)C(CO)NC(=O)n1c2ccccc2c2ccccc21` (stereo unspecified), the TGI in assay [2], in assay [3], in assay [4], in assay [5], in assay [7] and in assay [8] was > 100 µM each time.

In the case of `O=C1C(Cl)N(c2ccccc2[N+](=O)[O-])C1c1c[nH]c2ccccc12` (stereo unspecified), the TGI in assay [2], in assay [3], in assay [4], in assay [5], in assay [6] and in assay [7] was > 100 µM each time. The TGI in assay [8] is > 100 µM.

As to `O=C1NC2OC(CO)C(O)C(O1)C2O` (stereo unspecified), the TGI in assay [1], in assay [2], in assay [3], in assay [4], in assay [5] and in assay [6] was > 100 µM each time. Moreover, the TGI in assay [7] and in assay [8] was > 100 µM throughout.

As for `COc1c(Br)cc(CC(N)=O)c(O)c1Br`, the TGI in assay [1], in assay [2], in assay [3], in assay [4], in assay [5] and in assay [6] was > 100 µM in each case. Further, the TGI in assay [7] and in assay [8] was > 100 µM each time.

Turning to `NC(N)=Nc1ncccc1[N+](=O)[O-]`, the TGI is > 100 µM in assay [1]; > 100 µM in assay [2]; > 100 µM in assay [3]; > 100 µM in assay [4]; 57.2 µM in assay [5]; > 31.6 µM in assay [6]. Also, the TGI in assay [7] and in assay [8] was > 100 µM throughout.
